Assay results from publication PMC10033419, “Blocking NS3–NS4B interaction inhibits dengue virus in non-human primates” (Nature, 2023).
Values after ≈ are worked out from the molar mass of the structure shown. Read-outs that look alike come from different tables or passages of the source.

System: DENV-2 RL
Assay: microbe, parasite or virus in culture
Format: cell-based
Conditions: Dengue virus, DENV2, Vero

Structure (SMILES): COc1cc(N[C@H](C(=O)c2c[nH]c3ccc(OC(F)(F)F)cc23)c2ccc(Cl)cc2OC)cc(S(C)(=O)=O)c1 [JNJ-1802]
- EC50 (read-out: EC50 values [Well 1], A sample, passage 32): 100 ng/mL (≈ 172 nM)
- EC50 (read-out: EC50 values [Well 1], A sample, passage 33): 200 ng/mL (≈ 343 nM)
- EC50 (read-out: EC50 values [Well 1], A sample, passage 34): 200 ng/mL (≈ 343 nM)
- EC50 (read-out: EC50 values [Well 1], A sample, passage 35): 200 ng/mL (≈ 343 nM)
- EC50 (read-out: EC50 values [Well 1], A sample, passage 36): 200 ng/mL (≈ 343 nM)
- EC50 (read-out: EC50 values [Well 1], A sample, passage 37): 400 ng/mL (≈ 686 nM)
- EC50 (read-out: EC50 values [Well 1], A sample, passage 38): 400 ng/mL (≈ 686 nM)
- EC50 (read-out: EC50 values [Well 1], A sample, passage 39): 1000 ng/mL (≈ 1720 nM)
- EC50 (read-out: EC50 values [Well 1], A sample, passage 40): 1000 ng/mL (≈ 1720 nM)
- EC50 (read-out: EC50 values [Well 1], A sample, passage 41): 1000 ng/mL (≈ 1720 nM)
- EC50 (read-out: EC50 values [Well 1], A sample, passage 42 (END)): 1000 ng/mL (≈ 1720 nM)
- EC50 (read-out: EC50 values [Well 1], B sample, passage 1): 0.049 ng/mL (≈ 0.0841 nM)
- EC50 (read-out: EC50 values [Well 1], B sample, passage 2): 0.049 ng/mL (≈ 0.0841 nM)
- EC50 (read-out: EC50 values [Well 1], B sample, passage 3): 0.049 ng/mL (≈ 0.0841 nM)
- EC50 (read-out: EC50 values [Well 1], B sample, passage 4): 0.049 ng/mL (≈ 0.0841 nM)
- EC50 (read-out: EC50 values [Well 1], B sample, passage 5): 0.049 ng/mL (≈ 0.0841 nM)
- EC50 (read-out: EC50 values [Well 1], B sample, passage 11): 0.195 ng/mL (≈ 0.334 nM)
- EC50 (read-out: EC50 values [Well 1], B sample, passage 12): 0.195 ng/mL (≈ 0.334 nM)
- EC50 (read-out: EC50 values [Well 1], B sample, passage 13): 0.391 ng/mL (≈ 0.671 nM)
- EC50 (read-out: EC50 values [Well 1], B sample, passage 16): 0.195 ng/mL (≈ 0.334 nM)
- EC50 (read-out: EC50 values [Well 1], B sample, passage 17): 0.195 ng/mL (≈ 0.334 nM)
- EC50 (read-out: EC50 values [Well 1], B sample, passage 18): 0.195 ng/mL (≈ 0.335 nM)
- EC50 (read-out: EC50 values [Well 1], B sample, passage 19): 0.391 ng/mL (≈ 0.67 nM)
- EC50 (read-out: EC50 values [Well 1], B sample, passage 20): 0.391 ng/mL (≈ 0.67 nM)
- EC50 (read-out: EC50 values [Well 1], B sample, passage 21): 0.391 ng/mL (≈ 0.67 nM)
- EC50 (read-out: EC50 values [Well 1], B sample, passage 22): 0.391 ng/mL (≈ 0.67 nM)
- EC50 (read-out: EC50 values [Well 1], B sample, passage 24): 1.56 ng/mL (≈ 2.68 nM)
- EC50 (read-out: EC50 values [Well 1], B sample, passage 25): 3.13 ng/mL (≈ 5.37 nM)
- EC50 (read-out: EC50 values [Well 1], B sample, passage 26): 6.25 ng/mL (≈ 10.7 nM)
- EC50 (read-out: EC50 values [Well 1], B sample, passage 27): 6.25 ng/mL (≈ 10.7 nM)
- EC50 (read-out: EC50 values [Well 1], B sample, passage 28): 6.25 ng/mL (≈ 10.7 nM)
- EC50 (read-out: EC50 values [Well 1], B sample, passage 29): 25 ng/mL (≈ 42.9 nM)
- EC50 (read-out: EC50 values [Well 1], B sample, passage 30): 25 ng/mL (≈ 42.9 nM)
- EC50 (read-out: EC50 values [Well 1], B sample, passage 31): 31.3 ng/mL (≈ 53.7 nM)
- EC50 (read-out: EC50 values [Well 1], B sample, passage 32): 31.3 ng/mL (≈ 53.7 nM)
- EC50 (read-out: EC50 values [Well 1], B sample, passage 33): 62.5 ng/mL (≈ 107 nM)
- EC50 (read-out: EC50 values [Well 1], B sample, passage 34): 62.5 ng/mL (≈ 107 nM)
- EC50 (read-out: EC50 values [Well 1], B sample, passage 35): 62.5 ng/mL (≈ 107 nM)
- EC50 (read-out: EC50 values [Well 1], B sample, passage 36): 62.5 ng/mL (≈ 107 nM)
- EC50 (read-out: EC50 values [Well 1], B sample, passage 37): 62.5 ng/mL (≈ 107 nM)
- EC50 (read-out: EC50 values [Well 1], B sample, passage 38): 62.5 ng/mL (≈ 107 nM)
- EC50 (read-out: EC50 values [Well 1], B sample, passage 39): 125 ng/mL (≈ 214 nM)
- EC50 (read-out: EC50 values [Well 1], B sample, passage 40): 250 ng/mL (≈ 429 nM)
- EC50 (read-out: EC50 values [Well 1], B sample, passage 41): 500 ng/mL (≈ 858 nM)
- EC50 (read-out: EC50 values [Well 1], B sample, passage 42): 500 ng/mL (≈ 858 nM)
- EC50 (read-out: EC50 values [Well 1], B sample, passage 43): 500 ng/mL (≈ 858 nM)
- EC50 (read-out: EC50 values [Well 1], B sample, passage 44): 500 ng/mL (≈ 858 nM)
- EC50 (read-out: EC50 values [Well 1], B sample, passage 45): 500 ng/mL (≈ 858 nM)
- EC50 (read-out: EC50 values [Well 1], B sample, passage 46): 500 ng/mL (≈ 858 nM)
- EC50 (read-out: EC50 values [Well 1], B sample, passage 47): 500 ng/mL (≈ 858 nM)
- EC50 (read-out: EC50 values [Well 1], B sample, passage 48): 1000 ng/mL (≈ 1720 nM)
- EC50 (read-out: EC50 values [Well 1], B sample, passage 49): 1000 ng/mL (≈ 1720 nM)
- EC50 (read-out: EC50 values [Well 1], B sample, passage 50 (END)): 1000 ng/mL (≈ 1720 nM)
- EC50 (read-out: EC50 values [Well 2], A sample, passage 1): 0.024 ng/mL (≈ 0.0412 nM)
- EC50 (read-out: EC50 values [Well 2], A sample, passage 2): 0.024 ng/mL (≈ 0.0412 nM)
- EC50 (read-out: EC50 values [Well 2], A sample, passage 3): 0.024 ng/mL (≈ 0.0412 nM)
- EC50 (read-out: EC50 values [Well 2], A sample, passage 4): 0.024 ng/mL (≈ 0.0412 nM)
- EC50 (read-out: EC50 values [Well 2], A sample, passage 5): 0.024 ng/mL (≈ 0.0412 nM)
- EC50 (read-out: EC50 values [Well 2], A sample, passage 6): 0.049 ng/mL (≈ 0.0841 nM)
- EC50 (read-out: EC50 values [Well 2], A sample, passage 7): 0.024 ng/mL (≈ 0.0412 nM)
- EC50 (read-out: EC50 values [Well 2], A sample, passage 8): 0.024 ng/mL (≈ 0.0412 nM)
- EC50 (read-out: EC50 values [Well 2], A sample, passage 9): 0.049 ng/mL (≈ 0.0841 nM)
- EC50 (read-out: EC50 values [Well 2], A sample, passage 13): 0.195 ng/mL (≈ 0.334 nM)
- EC50 (read-out: EC50 values [Well 2], A sample, passage 14): 0.391 ng/mL (≈ 0.671 nM)
- EC50 (read-out: EC50 values [Well 2], A sample, passage 15): 0.391 ng/mL (≈ 0.671 nM)
- EC50 (read-out: EC50 values [Well 2], A sample, passage 17): 1.56 ng/mL (≈ 2.68 nM)
